According to publication doi:10.1101/2025.11.04.686469, “Discovery of Host-Directed Small Molecules with Broad Anti-Leishmanial Efficacy” (bioRxiv, 2025):

Legend:
[1] = tested on: THP-1 macrophages; experiment: Effect of compounds on host cell viability (MTT); format: cell-based; conditions: read-out: 24h LC50; THP1 macrophages, 24-hour incubation, MTT assay (Supplemental Table 2)
Summary of the method: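 THP-1 cells were differentiated with 150 nM PMA for 72 h, then exposed to compounds at 1–50 μM for 24 h; selected compounds were also run at 1–300 μM for 72 h. MTT at 0.5 mg/mL was added for 2 h at 37 °C, and formazan absorbance was read at 560 nm minus 670 nm.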

[2] = tested on: intracellular L. donovani amastigotes; experiment: Luminescent-based evaluation of intracellular anti-leishmanial activity in THP-1 macrophages; format: cell-based, Leishmania donovani; conditions: intracellular Leishmania donovani in THP1 macrophages, luminescence assay (Supplemental Table 2); read-out: Lum IC50
Protocol: Luminescent strains, L. donovani LV82 expressing firefly luciferase (a kind gift from Dr. Abhay Satoskar, Ohio State University) and L. mexicana (NR-51210, ATCC) expressing renilla luciferase were used to evaluate the effect of the compounds in intracellular and extracellular conditions. Wild-type L. donovani LV82 (ATCC) were used for Giemsa staining based experiments. All parasites were cultured at 25°C and 5% CO2 in M199 media (Corning) supplemented with 10% FBS, 1% penicillin/streptomycin, and hemin (0.01 mg/mL), and used in experiments up to passage 15.
THP-1 cells were seeded in a 96 well plate (25,000 cells/well) overnight then differentiated with 150 nM phorbol 12-myristate 13-acetate (PMA) over 72 hours (Supplemental Figure 1). […] Briefly, promastigotes of a known cell density were resuspended in RPMI media (with 10% FBS, 1% P/S and 0.05 mM β-mercaptoethanol) and incubated with adhered THP-1 cells over 18 hours. After infection, cells were washed three times with fresh media to remove extracellular promastigotes.
Infected macrophages were then treated with compounds solubilized in DMSO ranging from 0.1-10 μM in concentrations. After 72 hours of treatment, the viability of the amastigotes within macrophages was determined using Promega firefly luminescence assay (Cat E1500) or Pierce Renilla luciferase assay (Cat 16166) for L. donovani and L. mexicana strains, respectively. Briefly, media was removed, and cells were lysed with the assay lysis buffer. The luciferase substrate was then incubated with the lysed cells for 10 min at room temperature and luminescence of live Leishmania was measured in a white opaque 96 well plate using a Biotek plate reader.

Compound | CC50 [1] [µM] | IC50 [2] [µM]
FC(F)(F)c1cc(C2CCCCC2)n(-c2ccc(NC3CN(Cc4ccccc4)C3)cc2)n1 [Compound 395] | 37.4 | 7.6
COc1ccc(-n2cc(C(F)(F)F)nc2-c2ccc(-c3ccccc3)cc2)cc1 [Compound 245] | > 50 | > 10
FC(F)(F)c1cn(-c2ccc(NCC3CC3)cc2)c(-c2ccc(-c3ccccc3)cc2)n1 [Compound 116] | > 50 | 9.9
CC(C)(C)OC(=O)NCC(=O)Nc1ccc(-n2cc(C(F)(F)F)nc2-c2ccc(-c3ccc(C(F)(F)F)cc3)cc2)cc1 [Compound 77] | > 50 | > 10
O=C(C1CCCCC1)N1CC(Nc2ccc(-n3nc(C(F)(F)F)cc3-c3ccc(-c4ccc(C(F)(F)F)cc4)cc3)cc2)C1 [Compound 71] | 8.4 | > 10
FC(F)(F)c1ccc(-c2ccc(-c3cc(C(F)(F)F)nn3-c3ccc(N4CC(NCc5ccccc5)C4)cc3)cc2)cc1 [Compound 112] | 6.3 | > 10
CC(C)C#Cc1ccc(-c2cc(C(F)(F)F)nn2-c2ccc(N3CCC(NC(=O)OC(C)(C)C)C3)cc2)cc1 (centres unmarked) [Compound 97] | > 50 | > 10
CC(C)(C)c1ccc(-c2nc(C(F)(F)F)cn2-c2ccc(N)cc2)cc1 [Compound 149] | 28.8 | 9.1
NC1CCN(c2ccc(-n3nc(C(F)(F)F)cc3-c3ccncc3)cc2)C1 (centres unmarked) [Compound 168] | > 50 | 10
Fc1cccc(CN2CC(Nc3ccc(-n4nc(C(F)(F)F)cc4C4CCCCC4)cc3)C2)c1 [Compound 396] | 23.3 | 6.1
Cc1ccc(-n2nc(C(F)(F)F)cc2-c2ccc(-c3ccc(C(F)(F)F)cc3)cc2)c(C)c1 [Compound 185] | > 50 | > 10
FC(F)(F)C#Cc1ccc(-c2cc(C(F)(F)F)nn2-c2ccc(N3CCNCC3)cc2)cc1 [Compound 93] | 40 | > 10
O=S(=O)(c1ccc(-n2cc(C(F)(F)F)nc2-c2ccc(-c3ccc(C(F)(F)F)cc3)cc2)cc1)C(F)(F)F [Compound 244] | > 50 | > 10
NCC(=O)Nc1ccc(-n2cc(C(F)(F)F)nc2-c2ccc(-c3ccc(C(F)(F)F)cc3)cc2)cc1 [Compound 79] | 6.3 | 7.1
Oc1ccc(CNC2CCN(c3ccc(-n4nc(C(F)(F)F)cc4C4CCCCC4)cc3)C2)cc1 (centres unmarked) [Compound 362] | 20 | 2.2
FC(F)(F)c1cc(C(F)(F)F)n(-c2ccc(NC3CCNC3)cc2)n1 (centres unmarked) [Compound 314] | 21.9 | 2.7
O=[N+]([O-])c1ccc(-c2cc(C(F)(F)F)nn2-c2ccc(Br)cc2)cc1 [Compound 143] | > 50 | > 10
FC(F)(F)c1cc(-c2ccc(C#CC3CC3)cc2)n(-c2ccc(N3CCNCC3)cc2)n1 [Compound 42] | 0.7 | 4.2
CC(=O)c1ccc(-c2ccc(C(F)(F)F)cc2)cc1 [Compound 5] | 13.3 | 2.3
NCCCCCN1CCC(Oc2ccc(-n3nc(C(F)(F)F)cc3C3CCCCC3)cc2)CC1 [Compound 422] | 6.1 | 2.5
Nc1ccc(-n2cc(C(F)(F)F)nc2-c2ccc(-c3ccc(C(F)(F)F)cc3)cc2)cc1 [Compound 156] | 20.8 | 5.8
COc1ccc(C(=O)N2CCC(Nc3ccc(-n4nc(C(F)(F)F)cc4-c4ccc(-c5ccc(C(F)(F)F)cc5)cc4)cc3)C2)cc1OC (centres unmarked) [Compound 70] | > 50 | > 10
CC(C)(C)OC(=O)NC1CCN(c2ccc(-n3nc(C(F)(F)F)cc3C3CCCCC3)cc2)C1 (centres unmarked) [Compound 230] | 9.5 | > 10
Oc1ccc(CN2CCC(Nc3ccc(-n4nc(C(F)(F)F)cc4C4CCCCC4)cc3)C2)cc1 (centres unmarked) [Compound 368] | 12.1 | 1.6
CCc1cc(C(F)(F)F)nn1-c1ccc(NC2CCNC2)cc1 (centres unmarked) [Compound 318] | 27 | 1.8
FC(F)(F)c1ccc(-c2ccc(-c3cc(C(F)(F)F)nn3-c3ccc(NC4CNC4)cc3)cc2)cc1 [Compound 3] | 11 | 1.8
FC(F)(F)c1cc(C2CCCCC2)n(-c2ccc(Br)cc2)n1 [Compound 215] | > 50 | > 10
CNS(=O)(=O)Cc1ccc(-n2nc(C(F)(F)F)cc2-c2ccc(-c3ccc(C(F)(F)F)cc3)cc2)cc1 [Compound 191] | 12 | > 10

Compound | CC50 [1] [µM] | IC50 [2] [µM]
FC(F)(F)c1ccc(-c2ccc(-c3nc(C(F)(F)F)cn3-c3ccc(NC4CCNC4)cc3)cc2)cc1 (centres unmarked) [Compound 246] | 5.5 | 3.8
Oc1ccc(CNC2CCN(c3ccc(-n4nc(C(F)(F)F)cc4-c4ccc(-c5ccc(C(F)(F)F)cc5)cc4)cc3)C2)cc1 (centres unmarked) [Compound 18] | 24.5 | 4
FC(F)(F)c1cc(C2CC2)n(-c2ccc(NC3CCNC3)cc2)n1 (centres unmarked) [Compound 272] | 17.2 | 5.6
FC(F)(F)c1ccc(-c2ccc(-c3cc(C(F)(F)F)nn3-c3ccc(NC4CCN(Cc5ccccc5)CC4)cc3)cc2)cc1 [Compound 115] | 13.2 | 7.4
CC(=O)c1ccc(-n2cc(C(F)(F)F)nc2-c2ccc(-c3ccccc3)cc2)cc1 [Compound 184] | > 50 | 5
CC(C)(C)OC(=O)NC1CCN(c2ccc(-n3cc(C(F)(F)F)nc3-c3ccc(-c4ccccc4)cc3)cc2)C1 (centres unmarked) [Compound 82] | > 50 | > 10
CC(C)(C)OC(=O)NCC(=O)Nc1ccc(-n2cc(C(F)(F)F)nc2-c2ccc(C(C)(C)C)cc2)cc1 [Compound 151] | 31.8 | > 10
Cc1ccc(-c2cc(C(F)(F)F)nn2-c2ccc(Br)cc2)cc1 [Compound 196] | > 50 | > 10
CC(=O)NCCCNC1CCN(c2ccc(-n3nc(C(F)(F)F)cc3C3CCCCC3)cc2)CC1 [Compound 421] | 19 | 1.5
CCCCCC(=O)NC1CCN(c2ccc(-n3nc(C(F)(F)F)cc3-c3ccc(-c4ccc(C(F)(F)F)cc4)cc3)cc2)C1 (centres unmarked) [Compound 63] | > 50 | > 10
NC1CN(c2ccc(-n3nc(C(F)(F)F)cc3-c3ccc(-c4ccc(C(F)(F)F)cc4)cc3)cc2)C1 [Compound 172] | > 50 | > 10
NC1CCN(c2ccc(-n3nc(C(F)(F)F)cc3-c3ccc(F)cc3)cc2)C1 (centres unmarked) [Compound 248] | 14.4 | 2.6
FC(F)(F)c1ccc(-c2cnnn2-c2ccc(Br)cc2)cc1 [Compound 131] | 37.2 | > 10
NCCOCCN1CCC(Oc2ccc(-n3nc(C(F)(F)F)cc3C3CCCCC3)cc2)CC1 [Compound 423] | 3.4 | 6
FC(F)(F)c1cc(C2CCCCC2)n(-c2ccc(NC3CCNCC3)cc2)n1 [Compound 339] | 18.2 | 1.7
CC(C)C#Cc1ccc(-c2cc(C(F)(F)F)nn2-c2ccc(N)cc2)cc1 [Compound 95] | > 50 | > 10
NCC(=O)Nc1ccc(-n2nc(C(F)(F)F)cc2C2CCCCC2)cc1 [Compound 341] | 26.5 | 4
NCCCN1CCC(Oc2ccc(-n3nc(C(F)(F)F)cc3C3CCCCC3)cc2)CC1 [Compound 425] | 5.5 | 2.2
FC(F)(F)c1cc(-c2cccnc2)n(-c2ccc(Br)cc2)n1 [Compound 249] | 50 | > 10
Nc1ccc(-n2nc(C(F)(F)F)cc2-c2ccc(-c3ccc(S(F)(F)(F)(F)F)cc3)cc2)cc1 [Compound 104] | > 50 | > 10
CC(=O)NCCNC1CCN(c2ccc(-n3nc(C(F)(F)F)cc3C3CCCCC3)cc2)CC1 [Compound 419] | 21.6 | 2.7
FC(F)(F)c1cn(-c2ccc(NCc3ccccc3)cc2)c(-c2ccc(-c3ccccc3)cc2)n1 [Compound 87] | > 50 | 6.7
FC(F)(F)c1cc(C2CCCCC2)n(-c2ccc(N3CCC(NCc4ccccc4)C3)cc2)n1 (centres unmarked) [Compound 364] | 31.1 | 6.8
FC(F)(F)c1cc(C2CCCCC2)n(-c2ccc(OC3CCNC3)cc2)n1 (centres unmarked) [Compound 375] | 12.3 | 6.3
CC(=O)NCCOCCN1CCC(Oc2ccc(-n3nc(C(F)(F)F)cc3C3CCCCC3)cc2)CC1 [Compound 427] | 29.5 | 6.1
CC(C)(C)OC(=O)NC(Cc1ccccc1)C(=O)Nc1ccc(-n2cc(C(F)(F)F)nc2-c2ccc(-c3ccc(C(F)(F)F)cc3)cc2)cc1 (centres unmarked) [Compound 78] | > 50 | > 10
FC(F)(F)c1ccc(-c2ccc(-c3cc(C(F)(F)F)nn3-c3ccc(NC4CC(Cc5ccc(Cl)cc5)C4)cc3)cc2)cc1 (centres unmarked) [Compound 66] | > 50 | > 10
